Patent US20140099662A1, “PHOTOTOXICITY TEST METHOD” (SUMITOMO CHEMICAL COMPANY, LIMITED, priority 2011, published 2014)
Converted amounts (≈) assume the structure as drawn. Like-named read-outs stand apart in the source and are kept apart here.

Assays:
in vitro [1] = details: human, IC50 (50% inhibitory concentration, cytotoxicity)
Experimental: (§1) The human retinal pigment epithelial cells prepared in Example 2 were treated with 0.25% trypsin to collect the cells from a culture dish. The collected cells were seeded in a 96-well culture dish previously coated with Matrigel at 100000 or 120000 cells per well and then cultured in an incubator at 37° C. and 5% CO2.
(§2) After the cultivation for 2 hours to 4 hours, the medium was removed from the 96-well culture dish using an aspirator and Earle's Balanced Salt Solution (EBSS) was then added to the 96-well culture dish at 150 μl per well to wash the cells.
(§3) After the 96-well culture dish was shaded by wrapping with aluminum foil, irradiation of the culture dish shaded with aluminum foil with light was carried out using a light irradiation device (a solar simulator SXL-2500V2: SERIC LTD.) for 40 minutes (light irradiation dose of about 5 J/cm^2). Immediately after light irradiation, the 96-well culture dish was washed twice with 150 μl of a DMEM/F12 culture liquid and a DMEM/F12 culture liquid supplemented with N2-supplement was then added to the 96-well culture dish at 100 μl per well, followed by cultivation overnight.
(§4) After the cultivation, the medium was removed from the 96-well culture dish and a previously prepared mixed solution of equal amounts of DMEM/F12 culture liquid and Cell titer Glo reaction liquid was then added to the 96-well culture dish at 100 μl per well.
(§5) The obtained 96-well culture dish was allowed to stand at room temperature for 30 minutes while shaking in a shaded state with aluminum foil and 95 μl of culture contained in the 96-well culture dish was then transferred to a white 96-well examining dish. Next, the amount of luminescence of the culture contained in the 96-well examining dish (the amount of luminescence has a correlation with the cell survival rate) was measured by EnVision Multilabel Reader (PerkinElmer). The 50% inhibitory concentration (IC50) of a test substance to the human retinal pigment epithelial cells was calculated from the measured values and the calculated value was considered as a value showing cytotoxicity (an index value correlated therewith).
(§6) Unlike Example 3, irradiation with light was carried out using a light irradiation device (a solar simulator SXL-2500V2: SERIC LTD.) for 40 minutes without wrapping the 96-well culture dish with aluminum foil (light irradiation dose is about 5 J/cm^2 by calculation based on light irradiation strength at 360 nm). Immediately after light irradiation, the 96-well culture dish was washed twice with 150 μl of a DMEM/F12 culture liquid and a DMEM/F12 culture liquid supplemented with N2-supplement was then added to the 96-well culture dish at 100 μl per well, followed by cultivation overnight.
(§7) The above-described PIF value (Photo Irritation Facor value) was obtained based on the 50% inhibitory concentration (IC50) calculated in Example 3 and Example 4 (that is, a value obtained by dividing the cytotoxicity IC50 value in human retinal pigment epithelial cells exposed to a test substance (a (shaded) control for non-light Irradiation) by the cytotoxicity IC50 value in human retinal pigment epithelial cells cultured under simulated solar light irradiation within 24 hours after the onset of exposure to the test substance). […] When the value (PIF value) was greater than 5, the test substance was evaluated as phototoxicity-positive.

[2] = system: human retinal pigment epithelial cells; assay: in vitro
Experimental: as §1, §2, §3, §4, §5, §6, §7

Balb/c 3T3 cells = assay: in vitro
Experimental: (§8) “Balb/c 3T3 cells” are connective tissue cells and fibroblasts.
(§9) The “Balb/c 3T3 cells” cultured in DMEM medium supplemented with 10% bovine serum and L-glutamine were treated with 0.25% trypsin to collect the cells from a culture dish. The collected cells were seeded in a 96-well culture dish previously coated with a 0.1% gelatin solution at 10000 cells per well and then cultured in DMEM medium supplemented with 10% bovine serum and […] in an incubator at 37° C. and 5% CO2 overnight.
(§10) After the cultivation, the medium was removed from the 96-well culture dish using an aspirator and Earle's Balanced Salt Solution (EBSS) was then added to the 96-well culture dish at 150 μl per well to wash the cells.
(§11) After the 96-well culture dish was shaded by wrapping with aluminum foil, irradiation of the culture dish shaded with aluminum foil with light was carried out using a light irradiation device (a solar simulator SXL-2500V2: SERIC LTD.) for 40 minutes (the light irradiation dose is about 5 J/cm^2 by calculation based on irradiation strength at 360 nm). Immediately after light irradiation, the 96-well culture dish was washed twice with 150 μl of a DMEM/F12 culture liquid and a DMEM/F12 culture liquid supplemented with N2-supplement was then added to the 96-well culture dish at 100 μl per well, followed by cultivation overnight.
as §4
(§12) The obtained 96-well culture dish was allowed to stand at room temperature for 30 minutes while shaking in a shaded state with aluminum foil and 95 μl of culture contained in the 96-well culture dish was then transferred to a white 96-well examining dish.
(§13) Next, the amount of luminescence of the culture contained in the 96-well examining dish (the amount of luminescence has a correlation with the cell survival rate) was measured by EnVision Multilabel Reader (PerkinElmer). The 50% inhibitory concentration (IC50) of a test substance to the human retinal pigment epithelial cells was calculated from the measured values and the calculated value was considered as a value showing cytotoxicity (an index value correlated therewith).
(§14) The “Balb/c 3T3 cells” cultured in DMEM medium supplemented with 10% bovine serum and L-glutamine were treated with 0.25% trypsin to collect the cells from a culture dish. The collected cells were seeded in a 96-well culture dish previously coated with a 0.1% gelatin solution at 10000 cells per well and then cultured in DMEM medium supplemented with 10% bovine serum and L-glutamine in an incubator at 37° C. and 5% CO2 overnight.
as §6, with “Unlike Comparative” for “Unlike”, “1, light” for “3,”, “irradiation” for “irradiation with light”
as §12, with “dish. Next, the amount of luminescence of the culture contained in the 96-well examining dish (the amount of luminescence has a correlation with the cell survival rate) was measured by EnVision Multilabel Reader (PerkinElmer).” for “dish.”

yeast-RBC = details: 4 facilities, validation study report Aug. 27, 2004; cited from earlier work
in vitro [3] = details: mouse, IC50 (50% inhibitory concentration, cytotoxicity)
Experimental: as §8, §9, §10, §11, §4, §12, §13, §14
as §6, with “Unlike Comparative” for “Unlike”, “1, light” for “3,”, “irradiation” for “irradiation with light”
as §12, with “dish. Next, the amount of luminescence of the culture contained in the 96-well examining dish (the amount of luminescence has a correlation with the cell survival rate) was measured by EnVision Multilabel Reader (PerkinElmer).” for “dish.”

[4] = system: human retinal pigment epithelial cells
Experimental: The relationship between the light irradiation dose and the above-described PIF value (that is, a value obtained by dividing the cytotoxicity IC50 value in human retinal pigment epithelial cells exposed to a test substance (a (shaded) control for non-light irradiation) by the cytotoxicity IC50 value in human retinal pigment epithelial cells cultured under simulated solar light irradiation within 24 hours after the onset of contact with the test substance) was examined using chlorpromazine (CPZ) used as a positive control in the OECD guideline. Light irradiation was set to each condition of a light of 2.09 mW/cm^2 (measured with UVR300 manufactured by TOPCON CORPORATION equipped with photoreceiving part UD360) for 15 minutes (1.87 J/cm^2), 20 minutes (2.50 J/cm^2), 25 minutes (3.13 J/cm^2), 30 minutes (3.75 J/cm^2), 40 minutes (5.00 J/cm^2) and 60 minutes (7.51 J/cm^2), and the phototoxicity test method was carried out according to the methods described in Example 3 and Example 4. The phototoxicity test method in shaded conditions as a control for non-light irradiation was carried out in the same manner as in the phototoxicity test method under light irradiation except that light was blocked.
The number of viable cells of the human retinal pigment epithelial cells was checked for 15 minutes (1.87 J/cm^2), 20 minutes (2.50 J/cm^2), 25 minutes (3.13 J/cm^2), 30 minutes (3.75 J/cm^2), 40 minutes (5.00 J/cm^2) and 60 minutes (7.51 J/cm^2).

[5] = shaded (control for non-light irradiation)
[6] = shaded with aluminum foil (control for non-light irradiation), 40 minutes, then cultivation overnight
[7] = simulated solar light irradiation 40 minutes, about 5 J/cm^2
[8] = simulated solar light irradiation 40 minutes, about 5 J/cm^2 at 360 nm, then cultivation overnight

Row | Structure (SMILES) | IC50 at 40 min (in vitro [1]) [µg/mL] | photocytotoxicity determination by the phototoxicity test method of the present invention [2] | IC50 (50% inhibitory concentration, cytotoxicity) ([2]; human, 40 min) [µg/mL] | photocytotoxicity determination by the comparative phototoxicity test method (Balb/c 3T3 cells) | PIF value (Photo Irritation Facor value) = IC50 shaded / IC50 under light irradiation (Balb/c 3T3 cells; mouse, 40 min) | result in the yeast-RBC assay (yeast-RBC) | PIF value (Photo Irritation Facor value) = IC50 shaded / IC50 under light irradiation ([2]; human, 40 min) | IC50 (50% inhibitory concentration, cytotoxicity) (Balb/c 3T3 cells; mouse, 40 min) [µg/mL] | photocytotoxicity determination by the phototoxicity test method of the present invention ([2]; evaluation based on PIF value) | photocytotoxicity determination by the comparative phototoxicity test method (Balb/c 3T3 cells; evaluation based on PIF value) | further results
1 | Oc1c(Cl)cc(Cl)cc1Sc1cc(Cl)cc(Cl)c1O [Bithionol, bithionol] | > 10 | photocytotoxicity-negative | > 10 | photocytotoxicity-positive | 12.4 | false positive |  |  |  |  | concentration at or below which cytotoxicity was not observed ([2]; human, 40 min): ≤ 10 µg/mL
2 | [H]/N=C(\N/C(=N/[H])NCCCCCCNC(=N)NC(=N)Nc1ccc(Cl)cc1)Nc1ccc(Cl)cc1 [Chlorhexidine, chlorhexidine] | 42.7 (≈ 84.5 µM) | photocytotoxicity-negative | 43.7 (≈ 86.5 µM) | photocytotoxicity-negative | 1.4 | false positive | 0.98 | 10.1 (≈ 20 µM) |  |  | IC50 at 40 min (in vitro [3]): 13.7 µg/mL (≈ 27.1 µM)
3 | CN(C)CCCN1c2ccccc2Sc2ccc(Cl)cc21 [Chlorpromazine (CPZ), chlorpromazine] |  | photocytotoxicity-positive |  | photocytotoxicity-positive | 23.7 |  | 6.5 |  |  |  | PIF ([4]; 15 min): 1.70; PIF ([4]; 20 min): 1.72; PIF ([4]; 25 min): 3.35; light irradiation dose by which the number of viable cells under light irradiation significantly decreases relative to light blocked conditions ([4]; 25 min, 10 μg/ml): ≥ 3.13 J/cm^2; PIF ([4]; 30 min): 4.57; PIF ([4]; 40 min): 6.53; PIF ([4]; 60 min): 10.94
4 | CC1(C)S[C@@H]2[C@H](NC(=O)Cc3ccccc3)C(=O)N2[C@H]1C(=O)O [Penicillin G, penicillin G] |  |  |  |  |  |  |  |  | photocytotoxicity-negative | photocytotoxicity-negative | PIF value (Photo Irritation Facor value) = IC50 shaded / IC50 under light irradiation ([2]; from Example 3 and Example 4, greater than 5 = phototoxicity-positive): Photocytotoxicity is not Confirmed; concentration at or below which cytotoxicity was not observed [2, 5]: ≤ 1000 µg/mL; IC50 (50% inhibitory concentration, cytotoxicity) [2, 6]: > 1000 µg/mL; concentration at or below which cytotoxicity was not observed [2, 7]: ≤ 1000 µg/mL; IC50 (50% inhibitory concentration, cytotoxicity) [2, 8]: > 1000 µg/mL; PIF value (Photo Irritation Facor value) = IC50 shaded / IC50 under light irradiation (Balb/c 3T3 cells; from Comparative Example 1 and Comparative Example 2, greater than 5 = phototoxicity-positive): Photocytotoxicity is not Confirmed; concentration at or below which cytotoxicity was not observed (Balb/c 3T3 cells; [5]): ≤ 1000 µg/mL; IC50 (50% inhibitory concentration, cytotoxicity) (Balb/c 3T3 cells; [6]): > 1000 µg/mL; concentration at or below which cytotoxicity was not observed (Balb/c 3T3 cells; [7]): ≤ 1000 µg/mL; IC50 (50% inhibitory concentration, cytotoxicity) (Balb/c 3T3 cells; [8]): > 1000 µg/mL
5 | C=C[C@H]1C[N@@]2CC[C@H]1C[C@H]2[C@H](O)c1ccnc2ccc(OC)cc12 [Quinine, quinine] | 147 (≈ 453 µM) |  | 88.9 (≈ 274 µM) |  | 128.8 |  | 1.7 | 2.3 (≈ 7.09 µM) | photocytotoxicity-negative | photocytotoxicity-positive | IC50 (Balb/c 3T3 cells; mouse, 40 min): 292 µg/mL (≈ 901 µM)
